According to patent US20250360113A1, “ADMINISTRATION OF DHB TO INCREASE BENEFIT OF LOSING WEIGHT OF INTERMITTENT FASTING” (NANJING NUTRABUILDING BIO-TECH CO., LTD., priority 2023, published 2025):

What was measured:
Format in all cases: in vivo, C57BL/6 male mice
[1] = Plasma TCHO, TG, LDL, VLDL measured with kits at end of study; conditions: HFD obese mice, DHB 70 mg/kg i.g. daily with or without EODF vs no DHB
Protocol: 50 C57BL/6 male mice aged about 8 weeks, are randomly assigned to five study groups (GA, GB1, GB2, GB3, GB4) of ten mice each (one cage, n=5 per condition). Mice were maintained in a pathogen free condition under a strict 12 h light/dark cycle (0600/1800 h) with 12-15 cycles/hour of air change. Mice were provided with access to respective feed and water ad libitum as per experimental conditions. Mice were housed under controlled laboratory conditions of temperature and humidity at 23±2° C. and 50±10% RH, respectively. Each study group consisted of ten animals, and treatment details of the individual study groups are given below: • Group A (GA, NC): Normal mice, maintained on normal diet (standard chow, 12% calories from fat; 23% calories from protein and 65% calories from carbohydrates) for 8 weeks, receiving neither EODF nor DHB treatment. • Group B1 (GB1): Obese mice, maintained on high fat diet (HFD, 60% calories from fat, 20% calories from protein, 20% calories from carbohydrate) for 8 weeks, receiving neither EODF nor DHB treatment. • Group B2 (GB2): Obese mice, maintained on HFD for 8 weeks, receiving only EODF and no DHB treatment. • Group B3 (GB3): Obese mice, maintained on HFD for 8 weeks, receiving only DHB treatment and no EODF. • Group B4 (GB4): Obese mice, maintained on HFD for 8 weeks, receiving DHB treatment and EODF combination. DHB was administered daily via intragastric injection (i.g.) according to a level of 70 mg/kg body weight. Mice not receiving DHB were given orally with ultrapure water. At the end of the study blood was collected from all test groups and a various clinical parameter: plasma total cholesterol (TCHO), triglyceride (TG), low density lipoprotein (LDL), very low-density lipoprotein (VLDL) were measured using corresponding kits according to the manufacturers' instructions.

[2] = Serum insulin and leptin by ELISA at end of treatment; conditions: HFD obese mice
Protocol: 50 C57BL/6 male mice aged about 8 weeks, are randomly assigned to five study groups (GA, GB1, GB2, GB3, GB4) of ten mice each (one cage, n=5 per condition). Mice were maintained in a pathogen free condition under a strict 12 h light/dark cycle (0600/1800 h) with 12-15 cycles/hour of air change. Mice were provided with access to respective feed and water ad libitum as per experimental conditions. Mice were housed under controlled laboratory conditions of temperature and humidity at 23±2° C. and 50±10% RH, respectively. Each study group consisted of ten animals, and treatment details of the individual study groups are given below: • Group A (GA, NC): Normal mice, maintained on normal diet (standard chow, 12% calories from fat; 23% calories from protein and 65% calories from carbohydrates) for 8 weeks, receiving neither EODF nor DHB treatment. • Group B1 (GB1): Obese mice, maintained on high fat diet (HFD, 60% calories from fat, 20% calories from protein, 20% calories from carbohydrate) for 8 weeks, receiving neither EODF nor DHB treatment. • Group B2 (GB2): Obese mice, maintained on HFD for 8 weeks, receiving only EODF and no DHB treatment. • Group B3 (GB3): Obese mice, maintained on HFD for 8 weeks, receiving only DHB treatment and no EODF. • Group B4 (GB4): Obese mice, maintained on HFD for 8 weeks, receiving DHB treatment and EODF combination. DHB was administered daily via intragastric injection (i.g.) according to a level of 70 mg/kg body weight. Mice not receiving DHB were given orally with ultrapure water. Serum levels of insulin and leptin were determined at the end of the treatment period by standard ELISA methods. Since one key feature of obesity is the development of insulin and leptin resistance resulting in an elevation of the circulating levels of these two hormones as a consequence of compensatory physiological responses to insulin and leptin insensitivity, thus leptin is one of the major adipocytokines associated with maintaining glucose homeostasis.

[3] = Normal-diet mice given DHB with or without EODF, tested by the same method; conditions: normal mice on normal diet
Protocol: 40 C57BL/6 male mice aged about 8 weeks, are randomly assigned to four study groups (GA1, GA2, GA3, GA4) of ten mice each (one cage, […]). Mice were maintained in a pathogen free condition under a strict 12 h light/dark cycle (0600/1800 h) with 12-15 cycles/hour of air change. Mice were provided with access to respective feed and water ad libitum as per experimental conditions. Mice were housed under controlled laboratory conditions of temperature and humidity at 23±2° C. and 50±10% RH, respectively. Each study group consisted of ten animals, and treatment details of the individual study groups are given below: • Group A1 (GA1, NC): Normal mice, maintained on normal diet (standard chow, 12% calories from fat; 23% calories from protein and 65% calories from carbohydrates) for 8 weeks, receiving neither EODF nor DHB treatment. • Group A2 (GA2): Normal mice, maintained on normal diet for 8 weeks, receiving only EODF and no DHB treatment. • Group A3 (GA3): Normal mice, maintained on normal diet for 8 weeks, receiving only DHB treatment and no EODF. • Group A4(GA4): Normal mice, maintained on normal diet for 8 weeks, receiving DHB treatment and EODF combination. Test according to the above method. […] This effect persists for as long as the test protocol is continued.

[4] = DHB + EODF combination vs EODF only

In the case of `COc1ccc2c(c1OC)CN1CCc3cc4c(cc3C1=C2)OCO4` [DHB, Dihydroberberine], the TG ([1]; FIG. 5) is reported as “lower levels”, the TCHO ([1]; FIG. 6) is reported as “lower levels” and the LDL ([1]; FIG. 7) is reported as “lower levels”. For the same compound, the VLDL ([1]; FIG. 8) was “lower levels”, the “insulin resistance (serum levels of insulin)” value ([2]; DHB 70 mg/kg i.g. daily with or without EODF vs no DHB, FIG. 9) was “improved” and the “leptin resistance (serum levels of leptin)” value ([2]; DHB 70 mg/kg i.g. daily with or without EODF vs no DHB, FIG. 10) was “improved”. The improving insulin resistance [2, 4] was “greater effects”, the improving leptin resistance [2, 4] was “greater effects” and the “effects (same tests as in obese mice)” value [3, 4] was “greater effects”. For the same compound, the “effectiveness (same tests as in obese mice)” value ([3]; DHB vs no DHB with and without EODF) was “greater effectiveness”.
